Measured values taken from ChEMBL document CHEMBL5550204, “Discovery of ZJCK-6-46: A Potent, Selective, and Orally Available Dual-Specificity Tyrosine Phosphorylation-Regulated Kinase 1A Inhibitor for the Treatment of Alzheimer's Disease” (J Med Chem, 2024).
Activity calls are given as the source filed them. The rule behind the calls is not given here.

Columns and labels:
[1] = Permeability of compound at pH 7.4 at 10 uM incubated for 16 hrs by PAMPA-BBB assay based LC-MS/MS analysis
[2] = Apparent permeability across apical to basolateral side in dog MDCK-MDR1 cells at 5 uM incubated for 90 mins by LC-MS/MS analysis; type: ADME, cell-based, Canis lupus familiaris
CYP3A4 = CYP3A4 (Homo sapiens, UniProt P08684); experiment: Inhibition of CYP3A4 in human liver microsomes using midazolam as substrate at 10 uM preincubated for 10 mins followed by NADPH addition and measured after 40 mins by LC-MS/MS analysis relative to control; type: ADME, Microsome; conditions: probe midazolam, time 50 min
CYP3A4, sequence (P08684 whole entry): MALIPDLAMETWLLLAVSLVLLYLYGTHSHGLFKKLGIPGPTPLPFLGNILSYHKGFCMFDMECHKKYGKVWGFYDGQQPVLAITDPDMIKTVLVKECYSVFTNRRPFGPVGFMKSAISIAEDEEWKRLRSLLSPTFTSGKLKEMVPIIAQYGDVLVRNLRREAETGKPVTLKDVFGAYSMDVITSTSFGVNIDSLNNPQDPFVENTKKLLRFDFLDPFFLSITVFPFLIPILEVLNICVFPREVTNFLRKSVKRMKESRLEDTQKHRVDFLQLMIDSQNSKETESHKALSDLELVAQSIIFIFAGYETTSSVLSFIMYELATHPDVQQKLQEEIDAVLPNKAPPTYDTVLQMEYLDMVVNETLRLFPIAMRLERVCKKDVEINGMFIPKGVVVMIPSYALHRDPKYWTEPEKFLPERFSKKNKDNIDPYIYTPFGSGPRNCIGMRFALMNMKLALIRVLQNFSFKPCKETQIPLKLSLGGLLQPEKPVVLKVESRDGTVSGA

CYP2D6 = CYP2D6 (Homo sapiens, UniProt P10635); experiment: Inhibition of CYP2D6 in human liver microsomes using dextromethorphan as substrate at 10 uM preincubated for 10 mins followed by NADPH addition and measured after 40 mins by LC-MS/MS analysis relative to control; type: ADME, Microsome; conditions: probe dextromethorphan, time 50 min
CYP2D6, sequence (P10635 whole entry): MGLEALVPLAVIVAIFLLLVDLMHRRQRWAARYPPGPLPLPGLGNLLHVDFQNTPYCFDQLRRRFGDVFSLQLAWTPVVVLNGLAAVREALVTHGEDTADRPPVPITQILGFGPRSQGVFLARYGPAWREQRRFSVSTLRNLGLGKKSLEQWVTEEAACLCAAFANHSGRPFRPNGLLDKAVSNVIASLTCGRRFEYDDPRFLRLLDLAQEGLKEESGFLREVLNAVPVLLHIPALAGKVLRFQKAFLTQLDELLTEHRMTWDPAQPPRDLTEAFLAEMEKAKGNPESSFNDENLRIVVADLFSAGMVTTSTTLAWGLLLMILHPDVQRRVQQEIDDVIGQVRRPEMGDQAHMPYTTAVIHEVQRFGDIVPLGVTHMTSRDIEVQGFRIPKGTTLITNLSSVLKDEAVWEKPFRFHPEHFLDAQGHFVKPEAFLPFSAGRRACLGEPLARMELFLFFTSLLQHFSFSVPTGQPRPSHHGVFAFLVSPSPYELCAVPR

[3] = AUC (0 to t) in Sprague-Dawley rat at 2 mg/kg,iv measured upto 24 hrs by LC-MS/MS analysis; type: ADME, organism-based; conditions: in vivo
[4] = AUC (0 to infinity) in Sprague-Dawley rat at 2 mg/kg,iv measured upto 24 hrs by LC-MS/MS analysis; type: ADME, organism-based; conditions: in vivo
[5] = MRT (0 to t) in Sprague-Dawley rat at 2 mg/kg,iv measured upto 24 hrs by LC-MS/MS analysis; type: ADME, organism-based; conditions: in vivo
[6] = Drug concentration in Sprague-Dawley rat plasma at 10 mg/kg,po measured after 1 hr by LC-MS/MS analysis; type: ADME, organism-based
[7] = Drug concentration in Sprague-Dawley rat plasma at 10 mg/kg,po measured after 4 hrs by LC-MS/MS analysis; type: ADME, organism-based
Cytochrome P450 2C19 = Cytochrome P450 2C19 (Homo sapiens, UniProt P33261); experiment: Inhibition of CYP2C19 in human liver microsomes using mephenytoin as substrate preincubated for 10 mins followed by NADPH addition and measured after 40 mins by LC-MS/MS analysis; type: ADME, Microsome
Cytochrome P450 2C19, sequence (P33261 whole entry): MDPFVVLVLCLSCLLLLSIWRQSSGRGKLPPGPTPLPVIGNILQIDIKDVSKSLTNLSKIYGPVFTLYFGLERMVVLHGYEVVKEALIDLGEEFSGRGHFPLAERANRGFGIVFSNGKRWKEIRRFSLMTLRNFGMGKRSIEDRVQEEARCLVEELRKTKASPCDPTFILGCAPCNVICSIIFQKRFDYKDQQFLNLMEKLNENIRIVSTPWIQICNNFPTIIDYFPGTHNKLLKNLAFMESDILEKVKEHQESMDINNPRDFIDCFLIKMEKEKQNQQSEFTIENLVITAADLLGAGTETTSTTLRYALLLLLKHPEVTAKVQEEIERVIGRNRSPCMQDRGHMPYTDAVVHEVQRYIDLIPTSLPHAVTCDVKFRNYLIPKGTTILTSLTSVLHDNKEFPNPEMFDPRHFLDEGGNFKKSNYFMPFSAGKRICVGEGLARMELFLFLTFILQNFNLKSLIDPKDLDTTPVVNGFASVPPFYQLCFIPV

[8] = target: Dual specificity tyrosine-phosphorylation-regulated kinase 3 (Homo sapiens, UniProt O43781); experiment: Inhibition of DYRK3 (unknown origin) preincubated with enzyme for 10 mins followed by substrate and ATP addition measured after 60 mins by ADP-Glo reagent based assay
Dual specificity tyrosine-phosphorylation-regulated kinase 3, sequence (O43781 whole entry): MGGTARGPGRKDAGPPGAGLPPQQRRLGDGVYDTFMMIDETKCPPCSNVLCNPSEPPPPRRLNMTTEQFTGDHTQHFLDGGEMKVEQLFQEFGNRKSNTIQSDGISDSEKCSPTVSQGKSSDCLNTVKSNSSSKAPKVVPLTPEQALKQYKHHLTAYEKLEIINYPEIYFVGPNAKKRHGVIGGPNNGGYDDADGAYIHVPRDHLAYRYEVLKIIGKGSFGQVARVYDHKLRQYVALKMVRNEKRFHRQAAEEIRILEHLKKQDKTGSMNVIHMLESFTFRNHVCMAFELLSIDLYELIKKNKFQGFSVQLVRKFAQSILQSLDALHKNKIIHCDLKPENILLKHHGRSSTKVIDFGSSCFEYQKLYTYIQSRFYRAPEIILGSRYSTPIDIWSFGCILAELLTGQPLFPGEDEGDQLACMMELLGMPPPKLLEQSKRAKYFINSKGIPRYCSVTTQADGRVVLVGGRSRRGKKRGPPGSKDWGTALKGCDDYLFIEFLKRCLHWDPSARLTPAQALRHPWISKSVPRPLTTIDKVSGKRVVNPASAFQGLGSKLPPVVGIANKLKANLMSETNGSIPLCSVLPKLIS

[9] = target: Dual specificity tyrosine-phosphorylation-regulated kinase 4 (Homo sapiens, UniProt Q9NR20); experiment: Inhibition of DYRK4 (unknown origin) preincubated with enzyme for 10 mins followed by substrate and ATP addition measured after 60 mins by ADP-Glo reagent based assay
Dual specificity tyrosine-phosphorylation-regulated kinase 4, sequence (Q9NR20 whole entry): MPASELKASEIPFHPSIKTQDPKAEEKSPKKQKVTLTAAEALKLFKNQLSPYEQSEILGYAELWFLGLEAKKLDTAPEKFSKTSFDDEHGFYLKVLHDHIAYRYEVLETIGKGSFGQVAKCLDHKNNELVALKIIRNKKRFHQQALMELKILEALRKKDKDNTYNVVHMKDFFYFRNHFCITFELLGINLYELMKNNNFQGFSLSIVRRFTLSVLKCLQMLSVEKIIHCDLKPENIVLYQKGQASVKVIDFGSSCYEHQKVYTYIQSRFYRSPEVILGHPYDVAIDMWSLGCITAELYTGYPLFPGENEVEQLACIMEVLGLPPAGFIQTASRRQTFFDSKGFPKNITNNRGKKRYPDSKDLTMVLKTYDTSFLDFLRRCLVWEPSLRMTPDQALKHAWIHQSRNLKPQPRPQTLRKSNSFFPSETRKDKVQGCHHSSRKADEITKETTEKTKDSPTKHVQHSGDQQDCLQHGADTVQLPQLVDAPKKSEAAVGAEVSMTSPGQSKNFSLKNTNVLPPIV

[10] = target: Dual specificity protein kinase CLK1 (Homo sapiens, UniProt P49759); experiment: Inhibition of CLK1 (unknown origin) at 1 uM preincubated with enzyme for 10 mins followed by substrate and ATP addition measured after 60 mins by ADP-Glo reagent based assay relative to control; conditions: time 70.0 min
Dual specificity protein kinase CLK1, sequence (P49759 whole entry, looked up): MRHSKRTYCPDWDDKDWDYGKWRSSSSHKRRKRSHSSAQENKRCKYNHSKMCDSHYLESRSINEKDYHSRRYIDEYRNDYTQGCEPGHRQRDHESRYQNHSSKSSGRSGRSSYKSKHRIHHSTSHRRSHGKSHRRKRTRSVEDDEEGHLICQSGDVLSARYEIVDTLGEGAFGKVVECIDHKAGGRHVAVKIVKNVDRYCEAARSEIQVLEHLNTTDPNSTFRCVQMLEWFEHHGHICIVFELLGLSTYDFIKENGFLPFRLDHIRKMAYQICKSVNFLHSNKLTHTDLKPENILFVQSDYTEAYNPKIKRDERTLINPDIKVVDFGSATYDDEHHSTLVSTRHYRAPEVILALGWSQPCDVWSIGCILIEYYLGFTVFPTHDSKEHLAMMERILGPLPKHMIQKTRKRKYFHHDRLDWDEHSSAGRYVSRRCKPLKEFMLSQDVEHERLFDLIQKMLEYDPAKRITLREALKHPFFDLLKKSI

[11] = target: Dual specificity protein kinase CLK4 (Homo sapiens, UniProt Q9HAZ1); experiment: Inhibition of CLK4 (unknown origin) at 1 uM preincubated with enzyme for 10 mins followed by substrate and ATP addition measured after 60 mins by ADP-Glo reagent based assay relative to control; conditions: time 70.0 min
Dual specificity protein kinase CLK4, sequence (Q9HAZ1 whole entry, looked up): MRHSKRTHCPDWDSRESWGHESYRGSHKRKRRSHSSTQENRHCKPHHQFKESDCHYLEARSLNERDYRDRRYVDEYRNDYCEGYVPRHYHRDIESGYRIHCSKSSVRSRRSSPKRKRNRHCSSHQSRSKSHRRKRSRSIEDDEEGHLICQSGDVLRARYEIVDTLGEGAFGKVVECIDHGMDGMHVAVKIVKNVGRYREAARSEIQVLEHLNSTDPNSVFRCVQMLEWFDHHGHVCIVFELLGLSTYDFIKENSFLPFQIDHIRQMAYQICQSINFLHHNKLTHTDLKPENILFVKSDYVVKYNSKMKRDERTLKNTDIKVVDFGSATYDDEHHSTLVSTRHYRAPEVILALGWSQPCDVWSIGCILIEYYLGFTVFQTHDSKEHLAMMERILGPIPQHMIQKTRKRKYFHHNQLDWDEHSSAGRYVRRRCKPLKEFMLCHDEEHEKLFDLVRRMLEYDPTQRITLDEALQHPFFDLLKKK

SH-SY5Y = experiment: Cytotoxicity against human SH-SY5Y cells expressing human Tau P301L mutant at 0.15625 to 10 uM incubated for 24 hrs by MTT assay; type: functional, cell-based; conditions: dose 0.15625-10 µM
[12] = Acute toxicity in C57BL/6 mouse assessed as change in body weight at 500 mg/kg,po observed after 14 days; type: organism-based; conditions: in vivo, 336 h, time 14 day
[13] = Acute toxicity in C57BL/6 mouse assessed as change in kidney weight at 500 mg/kg,po observed after 14 days; type: organism-based; conditions: in vivo, 336 h, time 14 day
[14] = Acute toxicity in C57BL/6 mouse assessed as histopathological change in spleen at 500 mg/kg,po observed after 14 days by hematoxylin-eosin staining based analysis; type: organism-based; conditions: in vivo, 336 h, time 14 day
Mus musculus [15] = experiment: Antialzheimer activity in okadaic acid-induced cognitive impairment C57BL/6 mouse assessed as increase in number of platform crossing at 10 to 30 mg/kg,po measured after 7 days by Morris water maze test; type: functional, organism-based; conditions: dose 10-30 mg/kg, time 7.0 day
Mus musculus [16] = experiment: Antialzheimer activity in okadaic acid-induced cognitive impairment C57BL/6 mouse assessed as increase in cognitive function at 10 to 30 mg/kg,po measured after 7 days by Morris water maze test; type: functional, organism-based; conditions: dose 10-30 mg/kg, time 7.0 day
Mus musculus [17] = experiment: Antialzheimer activity in okadaic acid-induced cognitive impairment C57BL/6 mouse assessed as reduction in nerve damage in hippocampal DG region at 10 to 30 mg/kg,po once daily for 2 weeks by Nissl staining based microscopy; type: functional, organism-based; conditions: dose 10-30 mg/kg
Mus musculus [18] = experiment: Antialzheimer activity in okadaic acid-induced cognitive impairment C57BL/6 mouse assessed as downregulation of Tau phosphorylation at Thr212 residue in hippocampal CA1 region at 10 to 30 mg/kg,po once daily for 2 weeks by immunohistochemical staining analysis; type: functional, organism-based; conditions: dose 10-30 mg/kg

Cc1ccc2c(-c3ccc4ncnc(N[C@H](CO)c5ccccc5)c4c3)c[nH]c2n1
Papp at 16 h, 10 µM [1]: 13.4 ×10⁻⁶ cm/s
Papp A→B at […], 5 µM [2]: 2.67 ×10⁻⁶ cm/s
inhibition at 40 min, 10 µM (CYP3A4): 33.1%
inhibition at 40 min, 10 µM (CYP2D6): 65.8%
AUC(0-t) at 24 h [3]: 1500 ng·h/mL
AUC(0-inf) [4]: 1590 ng·h/mL
MRT last at 24 h [5]: 3.81 h
concentration at 1 h [6]: 353 ng/mL
concentration at 4 h [7]: 254 ng/mL
IC50 (Cytochrome P450 2C19): 1030 nM
IC50 [8]: 17.5 nM
IC50 [9]: 401 nM
inhibition [10]: 99.5%
inhibition [11]: 100%
Activity (SH-SY5Y): inactive
Activity [12]: Non-Toxic
Activity [13]: Non-Toxic
Activity [14]: Non-Toxic
Activity (Mus musculus [15]): Active
Activity (Mus musculus [16]): Active
Activity (Mus musculus [17]): Active
Activity (Mus musculus [18]): Active
